From patent publication US9611261B2, “Perfluorinated cyclopropyl fused 1,3-oxazin-2-amine compounds as beta-secretase inhibitors and methods of use” (AMGEN INC., priority 2013, dated 2017)

Tests used:
[1] = system: Aβ in lumbar CSF; conditions: healthy volunteers, cited from earlier work
[2] = target: Beta Secretase enzyme (BACE) (Homo sapiens (Human), UniProt P56817); experiment: In vitro enzymatic BACE FRET assay; assay type: biochemical; conditions: read-out: BACE1 Enzyme assay IC50
Description: In Vitro Enzymatic BACE FRET (Fluorescence Resonance Energy Transfer) Assay (Enzyme Assay Data in the Example Table I)
The assay buffer used in this screen is 0.05 M acetate, pH 4.2, 10% DMSO final, 100 uM genapol (which is a nonionic detergent, below its Critical Micelle Concentration). […] This assay is effectively started by the addition of FRET substrate (50 nM) and the combination is incubated for one hour. The FRET assay is terminated with by addition of Tris buffer, which raises the pH to neutrality, and the fluorescence is determined. The FRET substrate is a peptide with commercially available fluorophore and quencher, on opposite sides of the BACE cleavage site.

[3] = target: Recombinant Cat D (Cathepsin D) (Homo sapiens (Human), UniProt P07339); experiment: In vitro enzymatic Cathepsin D (Cat D) FRET assay; assay type: biochemical; conditions: read-out: CatD IC50
Recombinant Cat D (Cathepsin D), sequence (P07339 65-412, species assumed): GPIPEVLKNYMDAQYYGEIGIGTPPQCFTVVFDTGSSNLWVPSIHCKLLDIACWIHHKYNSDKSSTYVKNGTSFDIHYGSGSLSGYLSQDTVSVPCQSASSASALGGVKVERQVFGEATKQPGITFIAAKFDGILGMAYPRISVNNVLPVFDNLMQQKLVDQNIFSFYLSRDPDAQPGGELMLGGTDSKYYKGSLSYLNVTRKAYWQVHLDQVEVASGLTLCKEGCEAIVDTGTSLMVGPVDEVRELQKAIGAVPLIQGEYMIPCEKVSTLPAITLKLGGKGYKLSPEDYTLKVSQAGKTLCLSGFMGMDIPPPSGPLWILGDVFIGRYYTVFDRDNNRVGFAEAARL
Description: Recombinant Cat D was expressed in CHO cells. The assay buffer for CathepsinD is 0.05 M citrate pH 3.5, 10% DMSO final, 5 mM CHAPS. […] The assays are effectively started by the addition of different FRET substrates (20 nM for Cat D) and the combination is incubated for one hour. The FRET assay is terminated with by addition of Tris buffer, which raises the pH to neutrality, and the fluorescence is determined. The FRET substrate is a peptide with commercially available fluorophore and quencher, on opposite sides of the BACE cleavage site. […] Proteolytic cleavage of the FRET substrate releases quenching of fluorescence (Cat D excitation 500 nm and emission 580 nm).

Beta Secretase enzyme (BACE), sequence (P56817 46-501, species assumed): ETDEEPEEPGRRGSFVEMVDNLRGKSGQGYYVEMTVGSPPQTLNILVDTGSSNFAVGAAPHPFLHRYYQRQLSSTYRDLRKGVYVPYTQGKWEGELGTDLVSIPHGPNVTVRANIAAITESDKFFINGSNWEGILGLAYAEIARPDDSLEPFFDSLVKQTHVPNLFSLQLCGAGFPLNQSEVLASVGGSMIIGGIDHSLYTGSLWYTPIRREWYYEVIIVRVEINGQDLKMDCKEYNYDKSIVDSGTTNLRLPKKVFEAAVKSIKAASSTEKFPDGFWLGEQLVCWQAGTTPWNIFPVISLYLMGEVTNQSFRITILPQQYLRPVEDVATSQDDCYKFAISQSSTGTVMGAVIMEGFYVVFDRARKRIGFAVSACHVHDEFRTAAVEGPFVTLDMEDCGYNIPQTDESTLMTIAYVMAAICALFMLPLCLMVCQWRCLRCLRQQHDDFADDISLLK

Structure (SMILES) | Aβ reductions in lumbar CSF ([1]; after oral dosing of 30 or 90 mg) | safety and tolerability ([1]; Ph I) | IC50 [2] [µM] | IC50 [3] [µM]
C[C@@]1(c2cc(-c3cncnc3)c(F)cc2F)CCSC(N)=N1 [LY2811376, (S)-4-(2,4-difluoro-5-pyrimidin-5-yl-phenyl)-4-methyl-5,6-dihydro-4H-[1,3]thiazin-2-ylamine] | Prominent and long-lasting Aβ reductions | safe and well tolerated | – | –
C[C@@]1(c2cc(NC(=O)c3ccc(Cl)cn3)cnc2F)N=C(N)O[C@H]2C[C@H]21 [Example 333] | – | – | 0.13 | 816
N#Cc1cnc2c(c1)CCC[C@@H]2Nc1ccc(F)c([C@@]2(C(F)F)N=C(N)O[C@@H]3C[C@@H]32)c1 (mixture of isomers) [Example 403, (R)-8-((3-((1R,5S,6R)-3-amino-5-(difluoromethyl)-2-oxa-4-azabicyclo[4.1.0]hept-3-en-5-yl)-4-fluorophenyl)amino)-5,6,7,8-tetrahydroquinoline-3-carbonitrile and (S)-8-((3-((1R,5S,6R)-3-amino-5-(difluoromethyl)-2-oxa-4-azabicyclo[4.1.0]hept-3-en-5-yl)-4-fluorophenyl)amino)-5,6,7,8-tetrahydroquinoline-3-carbonitrile] | – | – | 2.85 | 469
COc1cc(Cl)cnc1C(=O)Nc1ccc(Cl)c([C@@]2(CF)N=C(N)O[C@@H]3C[C@@H]32)c1 [Example 297, N-(3-((1R,5S,6R)-3-amino-5-(fluoromethyl)-2-oxa-4-azabicyclo[4.1.0]hept-3-en-5-yl)-4-chlorophenyl)-5-chloro-3-methoxypicolinamide] | – | – | – | 835
N#Cc1ccc2c(c1)OCC[C@@H]2Nc1ccc(F)c([C@@]2(C(F)F)N=C(N)O[C@@H]3C[C@@H]32)c1 (mixture of isomers) [Example 383, (R)-4-((3-((1R,5S,6R)-3-amino-5-(difluoromethyl)-2-oxa-4-azabicyclo[4.1.0]hept-3-en-5-yl)-4-fluorophenyl)amino)chroman-7-carbonitrile and (S)-4-((3-((1R,5S,6R)-3-amino-5-(difluoromethyl)-2-oxa-4-azabicyclo[4.1.0]hept-3-en-5-yl)-4-fluorophenyl)amino)chroman-7-carbonitrile] | – | – | 0.968 | 206
N#Cc1cnc2c(c1)CC[C@@H]2Nc1ccc(F)c([C@@]2(C(F)F)N=C(N)O[C@@H]3C[C@@H]32)c1 [Example 404] | – | – | 0.291 | –
COc1cnc2c(Nc3cc(Cl)c(F)c([C@@]4(CF)N=C(N)O[C@@H]5C[C@@H]54)c3)nccc2n1 [Example 356, (1R,5S,6R)-5-(3-chloro-2-fluoro-5-((2-methoxypyrido[3,4-b]pyrazin-5-yl)amino)phenyl)-5-(fluoromethyl)-2-oxa-4-azabicyclo[4.1.0]hept-3-en-3-amine] | – | – | 0.0659 | 725
C#CCOc1cnc(C(=O)Nc2cc(F)c(Cl)c([C@]3(CF)N=C(N)O[C@H]4C[C@H]43)c2)cn1 (racemic) [Example 140, N-(3-((1R/S,5S/R,6R/S)-3-amino-5-(fluoromethyl)-2-oxa-4-azabicyclo[4.1.0]hept-3-en-5-yl)-4-chloro-5-fluorophenyl)-5-(prop-2-yn-1-yloxy)pyrazine-2-carboxamide] | – | – | 0.006 | 86.9
NC1=N[C@@](c2cc(NC(=O)c3cnc(Cl)cn3)ccc2F)(C(F)F)[C@H]2C[C@H]2O1 [Example 261, N-(3-((1R,5S,6R)-3-amino-5-(difluoromethyl)-2-oxa-4-azabicyclo[4.1.0]hept-3-en-5-yl)-4-fluorophenyl)-5-chloropyrazine-2-carboxamide] | – | – | 0.037 | 444
